# Measured values from US20240299591A1, “Antimicrobial Peptides and Their Use” (priority 2021, published 2024).
# Entries after “also recorded” stand apart in the source; their conditions may differ. Where a SMILES comes first, the peptide text is derived from it. [ ]: non-standard residue; d: D form. The star is where a group is joined. X1 = CN1/C(=C/C=C(/C=C/C2=[N+](C)c3ccccc3C2(C)C)c2ccc(C(=O)*)cn2)C(C)(C)c2ccccc21
# Assays:
# Fusarium species = settings: clinical isolates (Arikan et al., 2001); cited from earlier work
# Aspergillus species = settings: cited from earlier work
# Aspergillus fumigatus [1] = format: cell-based; settings: Conidia (10% Vogel's), 37° C., 24 h
# Method: The assays were performed using Nunc 262162 U96 polystyrene round bottomed clear plates (www.nuncbrand.com).
# (§1) When testing the peptides against A. fumigatus, peptides at different concentrations were mixed with A. fumigatus conidia to reach a final volume of 100 μL per well. The final conidial concentration was 5×10^5 cells/mL in 10% Vogel's medium. After 24 h of incubation at 37° C. in 96 well plates, fungal growth with the different peptide concentrations was determined by measurement of the optical density at 610 nm in a TriStar LB 941 Multimode Microplate Reader. The IC50 values were determined using four parameter logistic regression formula provided by Sigma Plot 10.0. Values are represented as means±SEM from two independent experiments (n=3).
# (§2) The IC50 of the fluorescently labelled peptides cannot be accurately determined using the optical density method described in the last section. This is because the fluorophore structures absorbed light at 610 nm which was the wavelength used for the optical density measurements. In order to overcome this, the BacTiter-Glo™ Microbial Cell Viability Assay kit purchased from Promega was used. The BacTiter-Glo™ Reagent relies on the properties of a proprietary thermostable luciferase (Ultra-Glo™ Recombinant Luciferase) and a proprietary formulation for extracting ATP from fungal cells which will generates a ‘glow-type’ luminescent signal. This is produced by the luciferase reaction shown in Scheme 1, which has a signal half-life of over 30 min depending on the experimental conditions. The luminescent signal is proportional to the amount of ATP present, which is directly proportional to the number of living cells in culture.
# (§3) The IC50 assays for all fluorescently labelled peptides were performed using Greiner CELLSTAR white polystyrene wells flat bottomed 96 well plates. The incubation conditions remained the same for the optical density measurement described in the previous section. Once the incubation procedure was finished, the plate was equilibrated to room temperature. A mixture of BacTiter-Glo™ buffer and substrate was then added to the plate (100 μL per well). The plate was shaken for 5 min and read using the Tristar […] luminometer. Data analysis was performed using Sigma Plot 10.0. All values shown are presented as means±SEM from two independent experiments (n=3).
# P. aeruginosa = test: Live cell imaging with P. aeruginosa; format: cell-based; settings: 2.5 μM, 37° C. in RPMI, 1 h
# rabbit eye = test: Tolerability study on rabbit eyes in vivo; settings: 10 µM, 50 µL into the right eye, three rabbits, observed 7 days
# Method: Three rabbits (rabbits 1, 2 and 3) were tested. All rabbits appeared unaffected immediately post-treatment and through the next 7 days with no signs of irritation and no change in general condition. MFIGAF001a was used at 10 µM and 50 µL and was admitted into the right eye of the rabbits.
# [2] = system: reconstructed cornea-like epithelium (RhCE, EpiOcular™); test: Viability of reconstructed cornea-like epithelium (eye irritation model); format: cell-based; settings: RhCE, EpiOcular™
# Method: (§4) FIG. 4a is a graph of the viability reconstructed cornea-like epithelium (RhCE, EpiOcular™) after incubation with MFIGA001. NC=Negative Control; PC=Positive Control. FIG. 4b is a graph of the viability reconstructed cornea-like epithelium (RhCE, EpiOcular™) after incubation with 10 µM of MFIGA001a and MFIGAF001b. NC=Negative Control; PC=Positive Control; A2=MFIGAF001a; and B1=MFIGAF001b.
# (§5) MFIGAF001 was also assessed independently by a CRO (Evotec) in an OECD compliant reconstructed cornea-like epithelial cell model (RhCE, EpiOcular™).
# [3] = as above; format: cell-based; settings: human, reconstructed cornea-like epithelium (RhCE, EpiOcular™); 10 μM; read-out: Mean of Viabilities (%)
# Method: as §4, §5
# [4] = system: C. albicans, F. oxysporum, A. fumigatus, and C. neoformans; test: Live cell imaging, fluorescent labelling of pathogenic fungi; format: cell-based; design: dose or concentration left out as unconfirmed; settings: 15 min incubation at 37° C. in RPMI
# Method: The N. crassa mat A WT used for confocal live-cell imaging was grown on 100% Vogel's agar medium at 25° C. for 3-5 days before the spores were harvested. The A. fumigatus CEA10 strain used for confocal live-cell imaging was grown on 100% Vogel's medium at 37° C. for 4-5 days before the spores were harvested. Before the confocal experiments were performed, N. crassa spores were incubated in eight-well slide culture chambers for 3 h at 25° C. in liquid 10% Vogel's medium and A. fumigatus spores were incubated for 16 h at 25° C. in liquid 10% Vogel's medium in order to allow germination to fully take place for imaging.
# Live-cell imaging of germinated fungi spores was performed using a Leica TCS SP8 confocal laser scanning microscope equipped with photo multiplier tubes (PMT), hybrid GaAsP (HyD) detectors and a 63× water immersion objective. A Leica turntable white light laser (WLL, 450-750 nm), argon laser (458 nm, 476 nm, 488 nm and 496 nm) and UV laser (405 nm) were used for fluorescence excitation.
# The major pathogenic fungi include C. albicans, F. oxysporum, A. fumigatus, and C. neoformans.
# S. aureus = test: Live cell imaging with S. aureus; format: cell-based, Staphylococcus aureus; settings: 2.5 µM, 20 min incubation at 37° C. in RPMI
# Source text: MFIGAF001a labels gram positive bacteria Staphylococcus aureus. (FIG. 14).
# A. fumigatus [5] = test: Live cell imaging of A. fumigatus in co-cultures with A549; format: cell-based, Aspergillus fumigatus; settings: 2.5 µM, 10 min after addition, 37° C. in RPMI
# [6] = system: Human Red Blood Cells (HRBCs); test: Haemolytic activity in human red blood cells; settings: 10 μM, 37° C., 1 h
# Method: Molecules, DMSO (as positive control) and PBS (as negative control) were incubated with human RBCs at 37° C. and their viability was assessed after 1 h.
# Erythrocytes were isolated from freshly drawn, anticoagulated human blood and diluted in PBS (1:5). An amount of 50 μl of erythrocyte suspension was added to 50 μl of compounds at 10 µM. DMSO was used as positive control and PBS as negative control. The plate was incubated at 37° C. for 1 h, each well was diluted with 150 μl of PBS and the plate was centrifuged at 1,200 g for 15 min. A total of 100 μl of the supernatant from each well was transferred to a fresh plate, and the absorbance at 350 nm was measured in a microplate reader. Data is represented as % of cell viability as means from three independent experiments with n=3.
# [7] = system: A. fumigatus and S. aureus; test: Live cell imaging in pig corneal infection model co-infected by A. fumigatus and S. aureus; settings: 2.5 μM, 15 min incubation at 37° C., co-infected 48 h
# Source text: The labelled compound can be used to distinguish fungus from S. aureus when using confocal microscopy based on assessing the morphology of the areas of fluorescence. The fungal hyphea can be observed and identified based on its characteristic filamentous shape, and its much larger size compared to the bacteria which appears to be much smaller and having a dotted shape.
# A. fumigatus [8] = test: Live cell imaging in pig corneal infection model; design: species or system Aspergillus fumigatus; dose or concentration left out as unconfirmed; settings: 15 min incubation at 37° C.
# Method: MFIGAF001a in a pig corneal infection model was investigated (FIG. 12).
# Porcine corneal was infected with A. fumigatus using the same method described above (Biological Example 8). After confirming the success of infection, 1 drop of MFIGAF001 solution in water (2.5 μM) was added topically to the corneal surface and incubated for 15 min at 37° C. before confocal microscopy.
# Fusarium oxysporum = format: cell-based; settings: Conidia (10% Vogel's), 35° C., 24 h
# Method: Dose dependent inhibition of fungal growth by all non-labelled peptides (indicated by IC50 values) was determined via this methodology. The assays were performed using Nunc 262162 U96 polystyrene round bottomed clear plates (www.nuncbrand.com).
# as §1
# When testing the peptides against N. crassa and F. oxysporum, experiments were carried as described above apart from the incubation temperature was changed to 25° C. for N. crassa and 35° C. for F. oxysporum.
# as §2, §3
# Aspergillus fumigatus [9] = format: cell-based; settings: Conidia (RPMI), 37° C., 24 h
structure (smiles),measurement,setting,value
CC[C@H](C)C[C@H](C)CCCCCCCCC(=O)N[C@H]1C[C@@H](O)[C@@H](NCCN)NC(=O)[C@@H]2[C@@H](O)CCN2C(=O)[C@H]([C@H](O)CCN)NC(=O)[C@H]([C@H](O)[C@@H](O)c2ccc(O)cc2)NC(=O)[C@@H]2C[C@@H](O)CN2C(=O)[C@H]([C@@H](C)O)NC1=O [Caspofungin],Activity against Fusarium species (MIC testing),Fusarium species,not particularly active
same,MICs against Aspergillus clinical isolates,Aspergillus species,moderate MICs
"CN1/C(=C/C=C(/C=C/C2=[N+](C)c3ccccc3C2(C)C)c2ccc(C(=O)NCCCC[C@@H]3NC(=O)[C@H](Cc4c[nH]c5ccccc45)NC(=O)[C@H](Cc4ccccc4)NC(=O)[C@H](Cc4c[nH]c5ccccc45)NC(=O)[C@@H](Cc4ccccc4)NC(=O)[C@H](CCCCN)NC(=O)[C@H](CCCCN)NC(=O)[C@H](CCCNC(=N)N)NC(=O)CNC3=O)cn2)C(C)(C)c2ccccc21 [MFIGAF001a, Cyclo(Arg-Lys-Lys-phe-Trp-Phe-Trp-Lys(Cy5)-Gly)] (cyclo(FWK(X1)GRKK[dF]W))",IC50 Aspergillus fumigatus,Aspergillus fumigatus [1],1.3 µg/mL
same,Selectivity over gram negative bacteria Pseudomonas (labelling),P. aeruginosa,great selectivity
same,Tolerability / eye irritation in rabbit eye,rabbit eye,no eye irritation; also recorded: well tolerated
same,"Toxicity, reconstructed cornea-like epithelium (FIG. 4)",[2],no obvious toxicity
same,viability at 10 µM,[3],98%
same,Fluorescent labelling of pathogenic fungi,[4],label all major pathogenic fungi that cause fungal keratitis; also recorded: rapid and highly fluorogenic labelling
same,Labelling of gram positive bacteria Staphylococcus aureus,S. aureus,labels
same,Selective labelling of A. fumigatus over A549,A. fumigatus [5],selectively labels A. fumigatus over A549 cell
same,Haemolytic activity against HRBCs,[6],no haemolytic activity
same,Differentiation of fungus from S. aureus by morphology of fluorescence,[7],can be used to differentiate fungal keratitis and gram positive bacterial keratitis
same,Selective labelling of A. fumigatus over porcine corneal tissue,A. fumigatus [8],selectively labelled A. fumigatus
same,IC50 Fusarium oxysporum,Fusarium oxysporum,1.5 µg/mL
C[C@@H]1C/C=C/C=C/C=C/C=C/[C@H](O[C@@H]2O[C@H](C)[C@@H](O)[C@H](N)[C@@H]2O)C[C@@H]2O[C@](O)(C[C@@H](O)C[C@H]3O[C@@H]3/C=C/C(=O)O1)C[C@H](O)[C@H]2C(=O)O [Natamycin],IC99 Aspergillus fumigatus,Aspergillus fumigatus [9],39 mg/L
